This data set is described as follows: Thermal stability test (Test Example 1): heating at 100° C. for 5 hours, residual rate by HPLC. The data set is classed as physicochemical. To be noted: heated at 100° C.; for residual rate: amount before heating set at 100%. How it is done: The thermal stability of (R)-α-lipoic acid, (R)-lipoic acid trisulfide, and compound (12-1) was evaluated as follows. Each compound was placed in a round-bottom flask and heated at 100° C. for 5 hours. Every hour, a sample was taken from the flask, dissolved in a methylene chloride/methanol mixture (1:1), and subjected to HPLC. The residual rate over time was calculated from the area values of each component.
In FIG. 1, the residual rate on the vertical axis was calculated from the degree of decomposition over time for each sample, with the amount before heating set at 100%. […] In addition, (R)-α-lipoic acid and (R)-lipoic acid trisulfide melted immediately after the start of heating, and insoluble by-products were formed. […] This is presumed to be due to the high melting point of compound (12-1) and suppression of intermolecular polymerization. From the above, it was confirmed that the compound or salt represented by Formula (1) has higher thermal stability than (R)-α-lipoic acid and (R)-lipoic acid trisulfide.

Some results are limits rather than exact numbers.

Take `O=C(O)CCCC[C@@H]1CCSSS1` [(R)-lipoic acid trisulfide]: the residual rate result (after 5 hours) is on record as “about 70%”. Moreover, the decomposition entry (at 2 hours) is “no decomposition”. As to `O=C(O)CCCC[C@@H]1CCSS1` [(R)-α-lipoic acid], the residual rate result reads like this: (after 5 hours) “about 50%”; (at 1 hour) “below 60%”. `O=C(CCCC[C@@H]1CCSSS1)N1CCN(C(=O)CCCC[C@@H]2CCSSS2)CC1` [Compound (12-1)]: under “after 5 hours”, the residual rate is ≥ 95%.

(Values after patent publication US20260209201A1, “TRISULFIDE COMPOUND AND CLATHRATE THEREOF” (Kyowa Pharma Chemical Co., Ltd., priority 2022, published 2026).)
